Laboratory results taken from US9321762B2, “Quinazoline compounds, method for preparing the same and use thereof” (DEVELOPMENT CENTER FOR BIOTECHNOLOGY, priority 2013, dated 2016).
Where two headings read alike, the source gives them in different places. Each block holds one molecule with its values, some of them ahead of it.

Experiments:
B-Raf kinase = molecular target: T1, B-Raf kinase (Homo sapiens, UniProt P15056); assay: B-Raf kinase assay ([33P] incorporation into MEK1(K97R)); format: biochemical; settings: class symbols; 8 μM ATP; read-out: IC50 against B-Raf kinase
T1 construct: purchased Upstate Biotechnology
Summary of the method: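 Recombinant B-Raf (5 ng) phosphorylating 500 ng MEK1(K97R) with 8 μM ATP plus [33P]ATP, pH 7.5 Tris buffer, 30 min at 30 °C. Radiolabel incorporation counted by filter-binding scintillation; IC50 from 3-fold serial dilutions run in duplicate.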

B-Raf(V600E) kinase = molecular target: T2, B-Raf(V600E) kinase (Homo sapiens, UniProt P15056, V600E); assay: B-Raf(V600E) kinase assay ([33P] incorporation into MEK1(K97R)); format: biochemical; settings: class symbols; 8 μM ATP; read-out: IC50 against B-Raf(V600E) kinase
T2 construct: purchased Upstate Biotechnology
Protocol: (§1) Inhibition of kinase activity by a test compound disclosed herein was estimated by quantifying the amount of [^33P] incorporation of a substrate in the presence of the test compound. Standard assay conditions were 5 ng of recombinant B-Raf(V600E) kinase (Upstate Biotechnology) with 500 ng MEK1 (K97R) in assay buffer (8 μM ATP, 0.5 μCi [^33P] ATP (specific activity 3000 Ci/mmol, PerkinElmer), 50 mM Tris/HCl (pH7.5), and 1 mM EGTA, 1 mM Na3VO4, 1% 2-mercaptoethanol, 0.1% Brij 35, and 0.2 mg/ml BSA), and the test compound (diluted with 4% DMSO) or DMSO alone (as a control) in a final volume of 25 μL. Reactions were incubated at 30° C. for 30 min and stopped by adding 3% phosphoric acid, harvested onto a 96-well GF/B UniFilter (PerkinElmer) using a unifilter harvester (PerkinElmer), and counted with a TopCount microplate scintillation counter (PerkinElmer). The IC50 values of inhibitors were determined after carrying out assays at 3-fold serially diluted concentrations of each compound in duplication. The results were analyzed using linear regression software (GraphPad Prism 4; GraphPad Software Inc.).

C-Raf kinase = molecular target: T3, C-Raf kinase (Homo sapiens, UniProt P04049); assay: C-Raf kinase assay ([33P] incorporation into MEK1(K97R)); format: biochemical; settings: class symbols; 8 μM ATP; read-out: IC50 against C-Raf kinase
T3 construct: purchased Upstate Biotechnology
Protocol: as §1, with “were 2” for “were 5”, “recombinant C-Raf” for “recombinant B-Raf(V600E)”

VEGFR2 kinase = molecular target: T4, VEGFR2 kinase (Homo sapiens, UniProt P35968); assay: VEGFR2 radiometric kinase assay; format: biochemical; settings: given as bound; 100 μM ATP; read-out: Inhibition activity, IC50 VEGFR2
T4 construct: VEGFR2 kinase domain alone, Millipore; purchased Millipore
Protocol: (§2) The inhibitory activity against VEGFR2 or EGFR was determined by radiometric kinase assay. The experimental condition for VEGFR2 kinase assay was 6.25 ng of recombinant VEGFR2 kinase (VEGFR2 kinase domain alone, Millipore), 5 μg of substrate Poly(Glu-Tyr) (4:1, Sigma), kinase reaction buffer (20 mM MOPS pH 7.0, 1 mM EDTA, 5% glycerol, 0.01% Brij-35, 0.1% β-mercaptoethanol, 1 mg/mL BSA, 100 μM ATP, and 0.1 μCi per well [^33P] ATP (specific activity 3000 Ci/mmol, PerkinElmer)), and the test compound (diluted with 4% DMSO) or DMSO alone (as a control) in a final volume of 25 μL. Reactions were incubated at 30° C. for 30 min and stopped by adding 3% phosphoric acid, harvested onto a 96-well GF/B UniFilter (PerkinElmer) using a unifilter harvester (PerkinElmer), and counted with a TopCount microplate scintillation counter (PerkinElmer).
(§3) Results of inhibition activity against VEGFR2 and EGFR kinases by the selected compounds, which have IC50 values on B-Raf kinase <300 nM, are summarized in Table 6.

EGFR kinase = molecular target: T5, EGFR kinase (Homo sapiens, UniProt P00533); assay: EGFR radiometric kinase assay; format: biochemical; settings: 100 μM ATP, read-out: Inhibition activity, IC50 EGFR
T5 construct: EGFR kinase domain alone, Millipore; purchased Millipore
Protocol: as §2
The experimental condition for EGFR kinase assay was 25 ng of EGFR kinase (EGFR kinase domain alone, Millipore), 3 μg of the substrate poly(Glu-Tyr), (Sigma), kinase reaction buffer (10 mM MOPS pH 7.0, 0.3 mM EDTA, 0.5% glycerol, 0.001% Brij-35, 10 mM MnCl2, 0.1 mg/ml BSA, 100 μM ATP, and 0.1 μCi per well [^33P]ATP (specific activity 3000 Ci/mmol, PerkinElmer)), and the test compound (diluted with 4% DMSO) or DMSO (as a control) in a final volume of 25 μL. Reactions were incubated at 30° C. for 30 min and stopped by adding 3% phosphoric acid, harvested onto a 96-well GF/B UniFilter (PerkinElmer) using a unifilter harvester (PerkinElmer), and counted with a TopCount microplate scintillation counter (PerkinElmer).
as §3

[1] = system: A375 melanoma cells and COLO205 colon cancer cells; assay: Cell proliferation assay (CellTiter-96); format: cell-based; settings: Homo sapiens; A375 or COLO205, 72 hours treatment; read-out: Cytotoxicity IC50 for A375 or COLO205
Protocol: The anti-proliferative activities of compounds of formula (I) against B-Raf(V600E) mutant human cancer cell lines, A375 melanoma cells and COLO205 colon cancer cells, were measured using the CellTiter™-96 assay kit (Promega) following the manufacturer's instructions. In brief, the cells were maintained in DMEM containing 10% FCS and incubated at 37° C. in 5% CO2 atmosphere. Cells were plated at a density of 2,000 cells/well on a 96-well plate and incubated for 24 h. Then, these cells were treated with different concentrations of the test compounds and incubated for another 72 hours. At the end of the incubation, CellTiter™-96 Aqueous One Solution Reagent (Promega) was added and incubated for another 4.0 hours. Cell viability was determined by measuring absorbance at 490 nm using EMax® microplate reader (Molecular Devices). Data were processed and analyzed using GraphPad Prism.

T4 sequence (P35968 834-1162 limits assumed): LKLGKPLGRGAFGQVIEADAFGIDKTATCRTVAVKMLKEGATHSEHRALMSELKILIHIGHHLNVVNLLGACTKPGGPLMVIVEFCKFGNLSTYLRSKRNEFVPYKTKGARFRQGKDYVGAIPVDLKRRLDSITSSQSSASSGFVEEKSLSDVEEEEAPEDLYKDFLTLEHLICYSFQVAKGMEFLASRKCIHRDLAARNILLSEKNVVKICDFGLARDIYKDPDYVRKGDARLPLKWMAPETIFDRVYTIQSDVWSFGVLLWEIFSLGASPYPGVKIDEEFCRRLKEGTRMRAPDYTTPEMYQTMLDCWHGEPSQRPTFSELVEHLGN
T1 sequence (P15056 whole entry): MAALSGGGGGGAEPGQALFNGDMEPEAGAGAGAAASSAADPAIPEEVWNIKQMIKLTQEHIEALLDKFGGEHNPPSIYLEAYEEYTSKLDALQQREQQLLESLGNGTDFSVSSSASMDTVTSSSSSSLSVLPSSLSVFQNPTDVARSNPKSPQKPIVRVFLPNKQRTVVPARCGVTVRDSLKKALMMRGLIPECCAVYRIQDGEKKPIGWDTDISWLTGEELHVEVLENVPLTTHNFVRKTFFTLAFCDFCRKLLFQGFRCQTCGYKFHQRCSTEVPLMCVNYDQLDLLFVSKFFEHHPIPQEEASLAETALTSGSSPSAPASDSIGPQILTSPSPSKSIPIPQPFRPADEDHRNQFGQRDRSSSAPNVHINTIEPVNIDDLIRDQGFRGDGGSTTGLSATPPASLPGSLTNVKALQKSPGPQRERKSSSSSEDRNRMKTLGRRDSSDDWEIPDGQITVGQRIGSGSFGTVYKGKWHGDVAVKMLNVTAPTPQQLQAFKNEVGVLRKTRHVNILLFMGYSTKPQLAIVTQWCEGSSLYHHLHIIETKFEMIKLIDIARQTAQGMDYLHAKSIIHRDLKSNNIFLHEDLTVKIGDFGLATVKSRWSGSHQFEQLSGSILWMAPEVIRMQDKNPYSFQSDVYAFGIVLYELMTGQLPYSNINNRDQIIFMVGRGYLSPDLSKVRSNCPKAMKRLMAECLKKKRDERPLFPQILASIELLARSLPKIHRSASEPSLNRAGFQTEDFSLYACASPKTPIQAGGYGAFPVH
T5 sequence (P00533 712-979 limits assumed): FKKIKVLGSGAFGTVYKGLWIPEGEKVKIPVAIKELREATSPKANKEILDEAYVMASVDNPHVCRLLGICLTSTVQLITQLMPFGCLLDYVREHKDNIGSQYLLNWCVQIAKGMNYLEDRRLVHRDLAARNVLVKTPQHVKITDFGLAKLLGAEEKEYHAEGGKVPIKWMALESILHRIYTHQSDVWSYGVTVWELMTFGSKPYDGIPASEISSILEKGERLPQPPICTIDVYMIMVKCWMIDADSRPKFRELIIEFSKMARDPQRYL
T3 sequence (P04049 whole entry): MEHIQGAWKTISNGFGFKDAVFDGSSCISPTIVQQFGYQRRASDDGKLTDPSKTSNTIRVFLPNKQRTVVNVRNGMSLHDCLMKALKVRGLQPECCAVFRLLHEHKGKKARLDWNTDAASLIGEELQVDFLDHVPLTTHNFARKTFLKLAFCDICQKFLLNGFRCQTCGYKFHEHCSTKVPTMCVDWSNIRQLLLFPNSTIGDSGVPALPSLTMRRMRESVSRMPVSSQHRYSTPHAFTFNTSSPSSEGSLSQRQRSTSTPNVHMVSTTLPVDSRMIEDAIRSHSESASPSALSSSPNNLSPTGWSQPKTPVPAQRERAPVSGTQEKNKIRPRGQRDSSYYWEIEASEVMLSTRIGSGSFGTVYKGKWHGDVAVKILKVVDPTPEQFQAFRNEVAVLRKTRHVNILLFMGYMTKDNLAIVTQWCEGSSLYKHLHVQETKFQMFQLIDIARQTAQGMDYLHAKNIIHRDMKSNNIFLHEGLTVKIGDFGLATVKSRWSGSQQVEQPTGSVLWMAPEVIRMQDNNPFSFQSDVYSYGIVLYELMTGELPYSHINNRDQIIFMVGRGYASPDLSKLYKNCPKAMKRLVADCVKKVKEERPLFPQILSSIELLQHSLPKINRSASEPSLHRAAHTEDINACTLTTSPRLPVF
T2 sequence (P15056 whole entry V600E): as the sequence (P15056 whole entry) above, with V600E counted along it

SMILES: CCCS(=O)(=O)Nc1ccc(F)c(Nc2ncnc3ccc(-c4cnc(N)nc4)cc23)c1F [compound 50, N-(3-(6-(2-aminopyrimidin-5-yl)quinazolin-4-ylamino)-2,4-difluorophenyl)propane-1-sulfonamide]
IC50 (B-Raf kinase): < 300 nM
IC50 (B-Raf(V600E) kinase): 300 to 1000 nM
IC50 (C-Raf kinase): 300 to 1000 nM
IC50 (VEGFR2 kinase): > 3000 nM
IC50 (EGFR kinase; given as bound): > 3000 nM
IC50 [1]: < 2000 nM

SMILES: CCCS(=O)(=O)Nc1ccc(F)c(Nc2ncnc3ccc(-c4cccc(OCCOC)n4)cc23)c1F [compound 38, N-(2,4-difluoro-3-(6-(6-(2-methoxyethoxy)pyridin-2-yl)quinazolin-4-ylamino)phenyl)propane-1-sulfonamide]
IC50 (B-Raf kinase): < 300 nM
IC50 (B-Raf(V600E) kinase): < 300 nM
IC50 (C-Raf kinase): 300 to 1000 nM
IC50 (VEGFR2 kinase): > 3000 nM
IC50 (EGFR kinase; class symbols): 1000 to 3000 nM
IC50 [1]: < 2000 nM

SMILES: CCCS(=O)(=O)Nc1ccc(F)c(Nc2ncnc3ccc(-c4cccc(C(F)(F)F)n4)cc23)c1F [compound 62, N-(2,4-difluoro-3-(6-(6-(trifluoromethyl)pyridin-2-yl)quinazolin-4-ylamino)phenyl)propane-1-sulfonamide]
IC50 (B-Raf kinase): < 300 nM
IC50 (B-Raf(V600E) kinase): < 300 nM
IC50 (C-Raf kinase): < 300 nM
IC50 (VEGFR2 kinase): > 3000 nM
IC50 (EGFR kinase; class symbols): 300 to 1000 nM
IC50 [1]: < 2000 nM

SMILES: CCCS(=O)(=O)Nc1ccc(F)c(Nc2ccnc3ccc(-c4ccncc4)cc23)c1F [compound 14, N-(2,4-difluoro-3-(6-(pyridin-4-yl)quinolin-4-ylamino)phenyl)propane-1-sulfonamide]
IC50 (B-Raf kinase): < 300 nM
IC50 (B-Raf(V600E) kinase): < 300 nM
IC50 (C-Raf kinase): < 300 nM
IC50 (VEGFR2 kinase): > 3000 nM
IC50 (EGFR kinase; class symbols): 1000 to 3000 nM
IC50 [1]: < 2000 nM

SMILES: CCCS(=O)(=O)Nc1ccc(F)c(Nc2ncnc3cc(F)c(-c4ccncc4)cc23)c1F [compound 15, N-(2,4-difluoro-3-(7-fluoro-6-(pyridin-4-yl)quinazolin-4-ylamino)phenyl)propane-1-sulfonamide]
IC50 (B-Raf kinase): < 300 nM
IC50 (B-Raf(V600E) kinase): < 300 nM
IC50 (C-Raf kinase): < 300 nM
IC50 (VEGFR2 kinase): > 3000 nM
IC50 (EGFR kinase; class symbols): 1000 to 3000 nM
IC50 [1]: < 2000 nM

Further lines, with some results ahead:

IC50 (B-Raf kinase): < 300 nM
IC50 (B-Raf(V600E) kinase): < 300 nM
IC50 (C-Raf kinase): < 300 nM
IC50 (VEGFR2 kinase): > 3000 nM
IC50 (EGFR kinase; given as bound): > 3000 nM
SMILES: CCCS(=O)(=O)Nc1ccc(F)c(Nc2ncnc3ccc(-c4cccnc4F)cc23)c1F [compound 1, N-(2,4-difluoro-3-(6-(2-fluoropyridin-3-yl)quinazolin-4-ylamino)phenyl)propane-1-sulfonamide]
IC50 [1]: < 2000 nM

IC50 (B-Raf kinase): < 300 nM
IC50 (B-Raf(V600E) kinase): < 300 nM
IC50 (C-Raf kinase): < 300 nM
IC50 (VEGFR2 kinase): > 3000 nM
IC50 (EGFR kinase; given as bound): > 3000 nM
SMILES: CCCS(=O)(=O)Nc1ccc(F)c(Nc2ncnc3ccc(-c4ccc(F)nc4)cc23)c1F [compound 3, N-(2,4-difluoro-3-(6-(6-fluoropyridin-3-yl)-quinazolin-4-ylamino)phenyl)propane-1-sulfonamide]
IC50 [1]: < 2000 nM

IC50 (B-Raf kinase): < 300 nM
IC50 (B-Raf(V600E) kinase): < 300 nM
IC50 (C-Raf kinase): < 300 nM
IC50 (VEGFR2 kinase): > 3000 nM
IC50 (EGFR kinase; given as bound): > 3000 nM
SMILES: CCCS(=O)(=O)Nc1ccc(F)c(Nc2ccnc3ccc(-c4ccnc(F)c4)cc23)c1F [compound 25, N-(2,4-difluoro-3-(6-(2-fluoropyridin-4-yl)quinolin-4-ylamino)phenyl)propane-1-sulfonamide]
IC50 [1]: < 2000 nM

IC50 (B-Raf kinase): < 300 nM
IC50 (B-Raf(V600E) kinase): < 300 nM
IC50 (C-Raf kinase): 300 to 1000 nM
IC50 (VEGFR2 kinase): > 3000 nM
IC50 (EGFR kinase; class symbols): 1000 to 3000 nM
SMILES: CCCS(=O)(=O)Nc1ccc(F)c(Nc2ncnc3ccc(-c4ccnc(F)c4)cc23)c1F [compound 24, N-(2,4-difluoro-3-(6-(2-fluoropyridin-4-yl)quinazolin-4-ylamino)phenyl)propane-1-sulfonamide]
IC50 [1]: < 2000 nM

IC50 (B-Raf kinase): < 300 nM
IC50 (B-Raf(V600E) kinase): < 300 nM
IC50 (C-Raf kinase): < 300 nM
IC50 (VEGFR2 kinase): > 3000 nM
IC50 (EGFR kinase; class symbols): 300 to 1000 nM
SMILES: CCCS(=O)(=O)Nc1ccc(F)c(Nc2ncnc3ccc(-c4ccncc4)cc23)c1F [compound 12, N-(2,4-difluoro-3-(6-(pyridin-4-yl)-quinazolin-4-ylamino)phenyl)propane-1-sulfonamide]
IC50 [1]: < 2000 nM
